Experiments:
[1] = (§1) Toxicity in ip dosed mouse; assay type: organism-based; conditions: in vivo
Mus musculus = experiment: as §1; assay type: organism-based; conditions: in vivo
[2] = Lipophilicity, Log p by HPLC; assay type: physicochemical

## O=c1[nH]nc2n(c1=O)CCN2c1cccc(Cl)c1
[1]
  LD50: 2000 mg/kg
Mus musculus
  log(1/LD50): -3.3
[2]
  logP: 2

## COc1ccccc1N1CCn2c1n[nH]c(=O)c2=O
Mus musculus
  log(1/LD50): -3.04
[2]
  logP: 0.97

## O=c1[nH]nc2n(c1=O)CCN2c1ccc(Cl)cc1
Mus musculus
  LD: 2000 mg/kg
  log(1/LD50): -3.3
[2]
  logP: 1.99

## Cc1ccccc1N1CCn2c1n[nH]c(=O)c2=O
[2]
  logP: 1.16

## O=c1[nH]nc2n(c1=O)CCN2c1ccccc1
Mus musculus
  log(1/LD50): -3.15
[2]
  logP: 1.31

## Cc1ccc(N2CCn3c2n[nH]c(=O)c3=O)cc1
Mus musculus
  log(1/LD50): -3.25
[2]
  logP: 1.84

## O=c1[nH]nc2n(c1=O)CCN2c1ccc(Cl)c(Cl)c1
[2]
  logP: 2.63

## COc1ccc(N2CCn3c2n[nH]c(=O)c3=O)cc1
Mus musculus
  log(1/LD50): -3.18
[2]
  logP: 1.21

Reference: ChEMBL document CHEMBL1165863, “Lipophilicity of novel antitumour and analgesic active 8-aryl-2,6,7,8-tetrahydroimidazo[2,1-c][1,2,4]triazine-3,4-dione derivatives determined by reversed-phase HPLC and computational methods” (Eur J Med Chem, 2010)
